Source: patent US11963959B2, “Inhibitors for coronavirus” (Southwest Research Institute, priority 2021, dated 2024)
Like-named read-outs stand apart in the source and are kept apart here.

How the values were obtained:
[1] = in vitro; conditions: African green monkey
[2] = test system: SARS-CoV-2 (USA-WA1/2020); test: microbe, parasite or virus in culture; type: cell-based; conditions: for EC50 / EC90: Severe acute respiratory syndrome coronavirus 2, Vero C1008; for SI: selectivity index=CC50/EC50
[3] = PK studies in mice, subcutaneous twice-a-day dosing, plasma and lung; type: in vivo; set-up: Tmax: unit not given here; conditions: for AUC / Cmax / half-life: mouse, sc
Description: In addition to the above, pharmokinetic (PK) studies have been completed on additional representative compounds of the pyyroloquinazolines noted herein. More specifically, pharmokinetic studies were conducted for Compound 8, 7-(2-(fluorobenzyl)-7H-pyrrolo[3,2-f]quinazoline-1,3-diamine having the following structure:
Reference is therefore made to FIG. 8 which provides the animal (mice) compound concentration versus time plots in blood plasma for dosing of Compound 8 at 10 mg/kg, subcutaneous, twice-a-day, at time points 0, 0.5, 1, 2, 4, 8, 12 hours post dose up to 36 hours. FIG. 9 provides the animal (mice) compound concentration versus time plots also for Compound 8 in the lung at 10 mg/kg, subcutaneous, twice-a-day, at time points 0, 0.5, 1, 2, 4, 8, 12 post dose up to 36 hours.
Reference is therefore made to FIG. 10 which provides the animal (mice) compound concentration versus time plots in blood plasma for dosing of Compound 9 at 25 mg/kg, subcutaneous, twice-a-day, at time points 0, 0.5, 1, 2, 4, 8, 12 hours post dose up to 36 hours. FIG. 11 provides the animal (mice) compound concentration versus time plots also for Compound 9 in the lung at 25 mg/kg, subcutaneous, twice-a-day, at time points 0, 0.5, 1, 2, 4, 8, 12 post dose up to 36 hours.
Reference is made to FIG. 12 which provides the animal (mice) compound concentration versus time plots in blood plasma for dosing of Compound 10 at 25 mg/kg, subcutaneous, twice-a-day, at time points 0, 0.5, 1, 2, 4, 8, 12 hours post dose up to 36 hours. FIG. 13 provides the animal (mice) compound concentration versus time plots also for Compound 10 in the lung at 25 mg/kg, subcutaneous, twice-a-day, at time points 0, 0.5, 1, 2, 4, 8, 12 hours post dose up to 36 hours.
Reference is made to FIG. 14 which provides the animal (mice) compound concentration versus time plots in blood plasma for dosing of Compound 11 at 25 mg/kg, subcutaneous, twice-a-day, at time points 0, 0.5, 1, 2, 4, 8, 12 hours post dose up to 36 hours. FIG. 15 provides the animal (mice) compound concentration versus time plots also for Compound 11 in the lung at 25 mg/kg, subcutaneous, twice-a-day, at time points 0, 0.5, 1, 2, 4, 8, 12 hours post does up to 36 hours.
Reference is made to FIG. 16 which provides the animal (mice) compound concentration versus time plots in blood plasma for dosing of Compound 12 at 10 mg/kg, subcutaneous, twice-a-day, at time points 0, 0.5, 1, 2, 4, 8, 12 hours post dose up to 36 hours. FIG. 17 provides the animal (mice) compound concentration versus time plots also for Compound 12 in the lung at 10 mg/kg, subcutaneous, twice-a-day, at time points 0, 0.5, 1, 2, 4, 8, 12 hours post dose up to 36 hours.

[4] = Table 7, SARS-CoV-2 strain, VeroE6, read-out: EC50
[5] = Table 7, SARS-CoV-2 strain, VeroE6, read-out: EC90
[6] = footnote of PK table, read-out: EC50
[7] = footnote of PK table, read-out: EC90
[8] = 10 mg/kg subcutaneous twice-a-day
[9] = lung, 10 mg/kg subcutaneous twice-a-day
[10] = plasma, 10 mg/kg subcutaneous twice-a-day
[11] = 25 mg/kg subcutaneous twice-a-day
[12] = lung, 25 mg/kg subcutaneous twice-a-day
[13] = plasma, 25 mg/kg subcutaneous twice-a-day
[14] = Table 2, SARS-CoV-2 strain, VeroE6, read-out: EC50
[15] = Table 2, SARS-CoV-2 strain, VeroE6, read-out: EC90
[16] = Table 1, SARS-CoV-2 strain, VeroE6, two biological replicates and 8 technical replicates, read-out: EC50
[17] = Table 1, SARS-CoV-2 strain, VeroE6, two biological replicates and 8 technical replicates, read-out: EC90

Nc1nc(N)c2c(ccc3c2ccn3Cc2ccccc2C(F)(F)F)n1 [Compound 1, 7-(2-(trifluoromethyl)benzyl)-7H-pyrrolo[3,2-f]quinazoline-1,3-diamine]
CC50 [1]: 2 ± 0.25 µM
EC50 [2]: 30 ± 10 nM
EC90 [2]: 70 ± 30 nM
SI ([2]; Table 1): 66.8

Nc1nc(N)c2c(ccc3c2ccn3Cc2ccccc2F)n1 [Compound 8]
CC50 [1]: 4.89 ± 4.7 µM
EC50 [2, 4]: 50 ± 31 nM
EC90 [2, 5]: 160 ± 142 nM
EC50 [2, 6]: 0.0246 µg/mL
EC90 [2, 7]: 0.0799 µg/mL
SI ([2]; Table 7): 98
tolerability [3, 8]: relatively well-tolerated
Time > EC90 [3, 9]: 98.3%
Tmax [3, 9]: 98.3
AUC [3, 9]: 13000 ng·h/mL
Cmax [3, 9]: 4140 ng/mL
half-life [3, 9]: 224 min
AUC [3, 10]: 2140 ng·h/mL
Cmax [3, 10]: 675 ng/mL
half-life [3, 10]: 186 min
Time > EC90 [3, 10]: 65%
Tmax [3, 10]: 1.4

Nc1nc(N)c2c(ccc3c2ccn3Cc2ccncc2)n1 [Compound 10, 7-(pyridin-4-ylmethyl)-7H-pyrrolo[3,2-f]quinazoline-1,3-diamine]
CC50 [1]: > 30 µM
EC50 [2, 4]: 80 ± 12 nM
EC90 [2, 5]: 240 ± 110 nM
EC50 [2, 6]: 0.0813 µg/mL
EC90 [2, 7]: 0.221 µg/mL
SI ([2]; Table 7): >375
tolerability [3, 11]: relatively well-tolerated
Time > EC90 [3, 12]: 63%
Tmax [3, 12]: 1.2
AUC [3, 12]: 7820 ng·h/mL
Cmax [3, 12]: 2910 ng/mL
half-life [3, 12]: 162 min
AUC [3, 13]: 1600 ng·h/mL
Cmax [3, 13]: 678 ng/mL
half-life [3, 13]: 126 min
Time > EC90 [3, 13]: 44%
Tmax [3, 13]: 1.2

O=C(c1sc(-c2ccccc2)nc1-c1ccccc1)N1C[C@H]2CNC[C@H]2C1 [Compound 5, (2,4-diphenylthiazol-5-yl)((3aR,6aS)-hexahydropyrrolo[3,4-c]pyrrol-2(1H)-yl)methanone]
CC50 [1]: 79.7 µM
EC50 [2, 14]: 8300 nM
EC90 [2, 15]: 75000 nM
SI ([2]; Table 2): 9.6

Nc1nc(N)c2c(ccc3c2ccn3CC2CCCCC2)n1 [Compound 12, 7-(cyclohexylmethyl)-7H-pyrrolo[3,2-f]quinazoline-1,3-diamine]
CC50 [1]: 4.91 ± 0.2 µM
EC50 [2, 4]: 120 ± 87 nM
EC90 [2, 5]: 320 ± 320 nM
EC50 [2, 6]: 0.0177 µg/mL
EC90 [2, 7]: 0.0325 µg/mL
SI ([2]; Table 7): 41
tolerability [3, 8]: relatively well-tolerated
Time > EC90 [3, 9]: 100%
Tmax [3, 9]: 1.4
AUC [3, 9]: 34100 ng·h/mL
Cmax [3, 9]: 10100 ng/mL
half-life [3, 9]: 186 min
AUC [3, 10]: 968 ng·h/mL
Cmax [3, 10]: 348 ng/mL
half-life [3, 10]: 252 min
Time > EC90 [3, 10]: 64%
Tmax [3, 10]: 1.4

O=C(c1sc(-c2ccccc2)nc1-c1ccc(Cl)cc1)N1C[C@H]2CNC[C@H]2C1 [Compound 6, (4-(4-chlorophenyl)-2-phenylthiazol-5-yl)((3aR,6aS)-hexahydropyrrolo[3,4-c]pyrrol-2(1H)-yl)methanone]
CC50 [1]: 17.1 µM
EC50 [2, 14]: 4200 nM
EC90 [2, 15]: 13300 nM
SI ([2]; Table 2): >4.0

Cc1ccccc1Cn1ccc2c3c(N)nc(N)nc3ccc21 [Compound 2, 7-(2-methylbenzyl)-7H-pyrrolo[3,2-f]quinazoline-1,3-diamine]
CC50 [1]: 4.94 ± 0.55 µM
EC50 [2, 16]: 20 ± 4 nM
EC90 [2, 17]: 32 ± 50 nM
SI ([2]; Table 1): 245

Cc1cc2c3c(N)nc(N)nc3ccc2n1Cc1ccc(C#N)cc1 [Compound 3, 4-((1,3-diamino-8-methyl-7H-pyrrolo[3,2-f]quinazolin-7-yl)methyl)benzonitrile]
CC50 [1]: 6.41 ± 0.7 µM
EC50 [2, 16]: 13 ± 5 nM
EC90 [2, 17]: 30 ± 20 nM
SI ([2]; Table 1): 477.3

Nc1nc(N)c2c(ccc3c2ccn3Cc2ccccn2)n1 [Compound 11, 7-(pyridin-2-ylmethyl)-7H-pyrrolo[3,2-f]quinazoline-1,3-diamine]
CC50 [1]: 15.5 ± 10.6 µM
EC50 [2, 4]: 120 ± 50 nM
EC90 [2, 5]: 360 ± 230 nM
EC50 [2, 6]: 0.0435 µg/mL
EC90 [2, 7]: 0.142 µg/mL
SI ([2]; Table 7): 128
tolerability [3, 11]: relatively well-tolerated
Time > EC90 [3, 12]: 85%
Tmax [3, 12]: 1.28
AUC [3, 12]: 14600 ng·h/mL
Cmax [3, 12]: 3270 ng/mL
half-life [3, 12]: 198 min
AUC [3, 13]: 1170 ng·h/mL
Cmax [3, 13]: 348 ng/mL
half-life [3, 13]: 156 min
Time > EC90 [3, 13]: 45%
Tmax [3, 13]: 1.6

Nc1nc(N)c2c(ccc3c2ccn3Cc2cccnc2)n1 [Compound 9, 7-(pyridin-3-ylmethyl)-7H-pyrrolo[3,2-f]quinazoline-1,3-diamine]
CC50 [1]: > 30 µM
EC50 [2, 4]: 160 ± 61 nM
EC90 [2, 5]: 360 ± 193 nM
EC50 [2, 6]: 0.058 µg/mL
EC90 [2, 7]: 0.142 µg/mL
SI ([2]; Table 7): >187
tolerability [3, 11]: relatively well-tolerated
Time > EC90 [3, 12]: 73%
Tmax [3, 12]: 1.9
AUC [3, 12]: 12400 ng·h/mL
Cmax [3, 12]: 3320 ng/mL
half-life [3, 12]: 168 min
AUC [3, 13]: 1190 ng·h/mL
Cmax [3, 13]: 365 ng/mL
half-life [3, 13]: 126 min
Time > EC90 [3, 13]: 55%
Tmax [3, 13]: 1.6

O=C(c1sc(-c2ccc(Cl)cc2)nc1-c1ccccc1)N1C[C@H]2CNC[C@H]2C1 [Compound 7, (2-(4-chlorophenyl)-4-phenylthiazol-5-yl)((3aR,6aS)-hexahydropyrrolo[3,4-c]pyrrol-2(1H)-yl)methanone]
CC50 [1]: 11 µM
EC50 [2, 14]: 4700 nM
EC90 [2, 15]: 7960 nM
SI ([2]; Table 2): 2.3

C=CCn1ccc2c3c(N)nc(N)nc3ccc21 [Compound 4, 7-allyl-7H-pyrrolo[3,2-f]quinazoline-1,3-diamine]
CC50 [1]: > 30 µM
EC50 [2, 16]: 470 ± 210 nM
EC90 [2, 17]: 850 ± 460 nM
SI ([2]; Table 1): >63.8
